In ChEMBL document CHEMBL1136606, “Design and synthesis of bicyclic pyrimidinone-based HCV NS3 protease inhibitors” (Bioorg Med Chem Lett, 2003):

Molecular target: NS3 (Hepatitis C virus, UniProt A3EZJ3)
Experiment: Inhibitory activity hepatitis C virus NS3 protease.
Parameters: species or system Hepacivirus hominis

NS3, sequence (A3EZJ3 whole entry): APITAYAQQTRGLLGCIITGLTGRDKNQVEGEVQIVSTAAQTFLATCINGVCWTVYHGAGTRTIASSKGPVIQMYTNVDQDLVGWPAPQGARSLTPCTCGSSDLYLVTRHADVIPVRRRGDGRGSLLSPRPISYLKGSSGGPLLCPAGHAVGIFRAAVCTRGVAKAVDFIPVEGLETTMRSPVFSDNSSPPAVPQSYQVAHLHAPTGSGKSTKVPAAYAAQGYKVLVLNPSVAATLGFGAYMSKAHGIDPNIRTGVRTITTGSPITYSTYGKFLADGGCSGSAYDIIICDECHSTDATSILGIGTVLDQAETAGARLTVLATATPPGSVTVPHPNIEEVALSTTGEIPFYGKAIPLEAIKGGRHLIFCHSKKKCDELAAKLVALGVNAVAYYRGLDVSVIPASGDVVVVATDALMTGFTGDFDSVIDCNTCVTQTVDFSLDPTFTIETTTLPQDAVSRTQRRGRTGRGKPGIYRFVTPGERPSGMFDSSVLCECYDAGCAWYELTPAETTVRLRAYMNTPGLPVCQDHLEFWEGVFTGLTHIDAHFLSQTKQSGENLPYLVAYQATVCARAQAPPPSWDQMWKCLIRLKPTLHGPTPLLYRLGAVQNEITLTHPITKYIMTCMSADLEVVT

IC50	Compound
440 nM	CC[C@H](NC(=O)[C@@H]1C[C@@](C)(CC(=O)Nc2nccc3ccccc23)c2ncc(NCc3cccc(C(F)(F)F)c3)c(=O)n21)B1OC2C3CC(C[C@]2(C)O1)C3(C)C (some centres not stated)
1400 nM	CC[C@H](NC(=O)[C@@H]1C[C@@](C)(NC(=O)Oc2ccccc2)c2ncc(NCc3cccc(C(F)(F)F)c3)c(=O)n21)B1OC2C3CC(C[C@]2(C)O1)C3(C)C (some centres not stated)
170 nM	CC[C@H](NC(=O)[C@@H]1C[C@@](C)(CC(=O)Nc2cccc3ccccc23)c2ncc(NCc3cccc(C(F)(F)F)c3)c(=O)n21)B1OC2C3CC(C[C@]2(C)O1)C3(C)C (some centres not stated)
100 nM	CC[C@H](NC(=O)[C@@H]1C[C@@](C)(CC(=O)Nc2ccccc2C(=O)OC)c2ncc(NCc3cccc(C(F)(F)F)c3)c(=O)n21)B1OC2C3CC(C[C@]2(C)O1)C3(C)C (some centres not stated)
80 nM	CC[C@H](NC(=O)[C@@H]1C[C@@](C)(NC(=O)Nc2ccccc2C(=O)OC)c2ncc(NCc3cccc(C(F)(F)F)c3)c(=O)n21)B1OC2C3CC(C[C@]2(C)O1)C3(C)C (some centres not stated)
710 nM	CC[C@H](NC(=O)[C@@H]1C[C@@](C)(NC(=O)Nc2ccccc2SC)c2ncc(NCc3cccc(C(F)(F)F)c3)c(=O)n21)B1OC2C3CC(C[C@]2(C)O1)C3(C)C (some centres not stated)
1460 nM	CC[C@H](NC(=O)[C@@H]1C[C@@](C)(CC(=O)Nc2ccccc2C(=O)N(C)C)c2ncc(NCc3cccc(C(F)(F)F)c3)c(=O)n21)B1OC2C3CC(C[C@]2(C)O1)C3(C)C (some centres not stated)
1550 nM	CCOC(=O)c1cccc(NC(=O)N[C@]2(C)C[C@@H](C(=O)N[C@@H](CC)B3OC4C5CC(C[C@]4(C)O3)C5(C)C)n3c2ncc(NCc2cccc(C(F)(F)F)c2)c3=O)c1 (some centres not stated)
30000 nM	CC[C@H](NC(=O)[C@@H]1C[C@@](C)(NC(=O)Nc2ccccc2-c2ccccc2)c2ncc(NCc3cccc(C(F)(F)F)c3)c(=O)n21)B1OC2C3CC(C[C@]2(C)O1)C3(C)C (some centres not stated)
150 nM	CC[C@H](NC(=O)[C@@H]1C[C@@](C)(CC(=O)Nc2ccccc2C(N)=O)c2ncc(NCc3cccc(C(F)(F)F)c3)c(=O)n21)B1OC2C3CC(C[C@]2(C)O1)C3(C)C (some centres not stated)
130 nM	CC[C@H](NC(=O)[C@@H]1C[C@@](C)(NC(=O)Nc2cccc(SC)c2)c2ncc(NCc3cccc(C(F)(F)F)c3)c(=O)n21)B1OC2C3CC(C[C@]2(C)O1)C3(C)C (some centres not stated)
1030 nM	CC[C@H](NC(=O)[C@@H]1C[C@@](C)(NC(=O)Nc2ccc(F)cc2)c2ncc(NCc3cccc(C(F)(F)F)c3)c(=O)n21)B1OC2C3CC(C[C@]2(C)O1)C3(C)C (some centres not stated)
500 nM	CC[C@H](NC(=O)[C@@H]1C[C@@](C)(NC(=O)Nc2cccc(F)c2)c2ncc(NCc3cccc(C(F)(F)F)c3)c(=O)n21)B1OC2C3CC(C[C@]2(C)O1)C3(C)C (some centres not stated)
2530 nM	CC[C@H](NC(=O)[C@@H]1C[C@@](C)(CC(=O)Nc2ccccc2[N+](=O)[O-])c2ncc(NCc3cccc(C(F)(F)F)c3)c(=O)n21)B1OC2C3CC(C[C@]2(C)O1)C3(C)C (some centres not stated)
370 nM	CC[C@H](NC(=O)[C@@H]1C[C@@](C)(NC(=O)Nc2ccccc2Cl)c2ncc(NCc3cccc(C(F)(F)F)c3)c(=O)n21)B1OC2C3CC(C[C@]2(C)O1)C3(C)C (some centres not stated)
790 nM	CC[C@H](NC(=O)[C@@H]1C[C@@](C)(NC(=O)Nc2ccccc2)c2ncc(NCc3cccc(C(F)(F)F)c3)c(=O)n21)B1OC2C3CC(C[C@]2(C)O1)C3(C)C (some centres not stated)
3400 nM	CC[C@H](NC(=O)[C@@H]1C[C@@](C)(NC(=O)c2ccccc2)c2ncc(NCc3cccc(C(F)(F)F)c3)c(=O)n21)B1OC2C3CC(C[C@]2(C)O1)C3(C)C (some centres not stated)
2360 nM	CC[C@H](NC(=O)[C@@H]1C[C@@](C)(NC(=O)Nc2ccc(SC)cc2)c2ncc(NCc3cccc(C(F)(F)F)c3)c(=O)n21)B1OC2C3CC(C[C@]2(C)O1)C3(C)C (some centres not stated)
180 nM	CC[C@H](NC(=O)[C@@H]1C[C@@](C)(NC(=O)Nc2ccccc2[N+](=O)[O-])c2ncc(NCc3cccc(C(F)(F)F)c3)c(=O)n21)B1OC2C3CC(C[C@]2(C)O1)C3(C)C (some centres not stated)

IC50	Compound
300 nM	CC[C@H](NC(=O)[C@@H]1C[C@@](C)(NC(=O)Nc2ccccc2Oc2ccccc2)c2ncc(NCc3cccc(C(F)(F)F)c3)c(=O)n21)B1OC2C3CC(C[C@]2(C)O1)C3(C)C (some centres not stated)
160 nM	CCOc1ccccc1NC(=O)N[C@]1(C)C[C@@H](C(=O)N[C@@H](CC)B2OC3C4CC(C[C@]3(C)O2)C4(C)C)n2c1ncc(NCc1cccc(C(F)(F)F)c1)c2=O (some centres not stated)
1770 nM	CC[C@H](NC(=O)[C@@H]1C[C@@](C)(NC(=O)Nc2cccc(C(=O)OC)c2)c2ncc(NCc3cccc(C(F)(F)F)c3)c(=O)n21)B1OC2C3CC(C[C@]2(C)O1)C3(C)C (some centres not stated)
180 nM	CC[C@H](NC(=O)[C@@H]1C[C@@](C)(CC(=O)Nc2ccccc2C(=O)NC)c2ncc(NCc3cccc(C(F)(F)F)c3)c(=O)n21)B1OC2C3CC(C[C@]2(C)O1)C3(C)C (some centres not stated)
1100 nM	CCOC(=O)c1ccc(NC(=O)N[C@]2(C)C[C@@H](C(=O)N[C@@H](CC)B3OC4C5CC(C[C@]4(C)O3)C5(C)C)n3c2ncc(NCc2cccc(C(F)(F)F)c2)c3=O)cc1 (some centres not stated)
1200 nM	CC[C@H](NC(=O)[C@@H]1C[C@@](C)(NC(=O)NCc2ccccc2)c2ncc(NCc3cccc(C(F)(F)F)c3)c(=O)n21)B1OC2C3CC(C[C@]2(C)O1)C3(C)C (some centres not stated)
1100 nM	CC[C@H](NC(=O)[C@@H]1C[C@@](C)(NC(=O)Nc2ccc(Cl)cc2)c2ncc(NCc3cccc(C(F)(F)F)c3)c(=O)n21)B1OC2C3CC(C[C@]2(C)O1)C3(C)C (some centres not stated)
170 nM	CC[C@H](NC(=O)[C@@H]1C[C@@](C)(CC(=O)Nc2ccccc2)c2ncc(NCc3cccc(C(F)(F)F)c3)c(=O)n21)B1OC2C3CC(C[C@]2(C)O1)C3(C)C (some centres not stated)
200 nM	CC[C@H](NC(=O)[C@@H]1C[C@@](C)(CC(=O)Nc2ccccc2OC)c2ncc(NCc3cccc(C(F)(F)F)c3)c(=O)n21)B1OC2C3CC(C[C@]2(C)O1)C3(C)C (some centres not stated)
2400 nM	CC[C@H](NC(=O)[C@@H]1C[C@@](C)(NC(=O)Cc2ccccc2)c2ncc(NCc3cccc(C(F)(F)F)c3)c(=O)n21)B1OC2C3CC(C[C@]2(C)O1)C3(C)C (some centres not stated)
100 nM	CCOC(=O)c1ccccc1NC(=O)N[C@]1(C)C[C@@H](C(=O)N[C@@H](CC)B2OC3C4CC(C[C@]3(C)O2)C4(C)C)n2c1ncc(NCc1cccc(C(F)(F)F)c1)c2=O (some centres not stated)
270 nM	CC[C@H](NC(=O)[C@@H]1C[C@@](C)(NC(=O)Nc2cccc3ccccc23)c2ncc(NCc3cccc(C(F)(F)F)c3)c(=O)n21)B1OC2C3CC(C[C@]2(C)O1)C3(C)C (some centres not stated)
4740 nM	CC[C@H](NC(=O)[C@@H]1C[C@@](C)(NC(=O)Nc2ccc(Oc3ccccc3)cc2)c2ncc(NCc3cccc(C(F)(F)F)c3)c(=O)n21)B1OC2C3CC(C[C@]2(C)O1)C3(C)C (some centres not stated)
780 nM	CC[C@H](NC(=O)[C@@H]1C[C@@](C)(NC(=O)Nc2ccccc2C)c2ncc(NCc3cccc(C(F)(F)F)c3)c(=O)n21)B1OC2C3CC(C[C@]2(C)O1)C3(C)C (some centres not stated)
360 nM	CC[C@H](NC(=O)[C@@H]1C[C@@](C)(NC(=O)Nc2ccccc2OC)c2ncc(NCc3cccc(C(F)(F)F)c3)c(=O)n21)B1OC2C3CC(C[C@]2(C)O1)C3(C)C (some centres not stated)
6400 nM	CC[C@H](NC(=O)[C@@H]1C[C@@](C)(NC(=O)Nc2ccccc2C(=O)O)c2ncc(NCc3cccc(C(F)(F)F)c3)c(=O)n21)B1OC2C3CC(C[C@]2(C)O1)C3(C)C (some centres not stated)
90 nM	CC[C@H](NC(=O)[C@@H]1C[C@@](C)(CC(=O)Nc2cccc(SC)c2)c2ncc(NCc3cccc(C(F)(F)F)c3)c(=O)n21)B1OC2C3CC(C[C@]2(C)O1)C3(C)C (some centres not stated)
7000 nM	CC[C@H](NC(=O)[C@@H]1CCc2ncc(NCc3cccc(C(F)(F)F)c3)c(=O)n21)B1OC2C3CC(C[C@]2(C)O1)C3(C)C (some centres not stated)
